Reference: patent publication US20220313686A1, “PHARMACEUTICAL COMPOSITIONS COMPRISING A COMBINATION OF OPIOID ANTAGONISTS” (YISSUM RESEARCH DEVELOPMENT COMPANY OF THE HEBREW …, priority 2019, published 2022)

Tests used:
opioid receptors [1] = settings: metabolite of naltrexone; cited from earlier work
[2] = Passive loading of naloxone and naltrexone into MLV's liposomes; type: physicochemical
opioid receptors [3] = settings: in vivo; cited from earlier work
μ-opioid receptor = μ-opioid receptor (Homo sapiens, UniProt P35372); settings: cited from earlier work
Sequence of μ-opioid receptor (P35372 whole entry, species assumed): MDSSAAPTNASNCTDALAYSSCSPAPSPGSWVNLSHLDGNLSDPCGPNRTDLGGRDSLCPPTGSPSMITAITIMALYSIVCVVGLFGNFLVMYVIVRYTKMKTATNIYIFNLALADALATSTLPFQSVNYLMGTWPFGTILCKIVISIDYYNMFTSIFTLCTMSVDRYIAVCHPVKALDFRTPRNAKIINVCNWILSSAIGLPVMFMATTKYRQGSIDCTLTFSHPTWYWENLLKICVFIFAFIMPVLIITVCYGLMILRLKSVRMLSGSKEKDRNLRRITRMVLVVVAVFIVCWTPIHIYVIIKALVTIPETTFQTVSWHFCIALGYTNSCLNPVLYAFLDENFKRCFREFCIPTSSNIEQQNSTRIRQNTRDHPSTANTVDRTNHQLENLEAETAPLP

κ-receptor [4] = target: T1, κ-receptor (Homo sapiens, UniProt P41145); settings: in vitro; cited from earlier work
T1 sequence (P41145 whole entry): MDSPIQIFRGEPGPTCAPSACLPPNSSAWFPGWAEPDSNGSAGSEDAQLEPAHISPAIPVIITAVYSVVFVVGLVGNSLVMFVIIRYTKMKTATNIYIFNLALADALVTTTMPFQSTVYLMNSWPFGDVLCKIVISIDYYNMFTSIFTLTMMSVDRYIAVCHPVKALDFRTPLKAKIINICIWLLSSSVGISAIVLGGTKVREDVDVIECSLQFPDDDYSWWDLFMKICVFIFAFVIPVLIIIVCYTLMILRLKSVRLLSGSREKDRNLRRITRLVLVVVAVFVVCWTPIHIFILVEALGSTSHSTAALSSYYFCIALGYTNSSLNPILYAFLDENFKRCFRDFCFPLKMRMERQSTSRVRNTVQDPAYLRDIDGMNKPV

δ-receptor [5] = target: T2, δ-receptor (Homo sapiens, UniProt P41143); settings: in vitro; cited from earlier work
T2 sequence (P41143 whole entry): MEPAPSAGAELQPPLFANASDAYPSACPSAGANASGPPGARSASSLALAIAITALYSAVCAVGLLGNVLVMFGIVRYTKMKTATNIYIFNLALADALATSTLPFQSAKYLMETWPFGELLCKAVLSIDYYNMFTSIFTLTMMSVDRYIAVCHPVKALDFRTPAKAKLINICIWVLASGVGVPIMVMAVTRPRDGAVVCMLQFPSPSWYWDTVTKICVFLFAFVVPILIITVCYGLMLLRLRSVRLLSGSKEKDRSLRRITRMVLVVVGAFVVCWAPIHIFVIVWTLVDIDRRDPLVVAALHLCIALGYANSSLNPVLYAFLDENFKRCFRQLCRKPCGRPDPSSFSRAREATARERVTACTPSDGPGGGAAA

μ-receptor = μ-receptor (Homo sapiens, UniProt P35372); settings: in vitro; cited from earlier work
Sequence of μ-receptor (P35372 whole entry, species assumed): as the sequence (P35372 whole entry, species assumed) above

κ-receptor [6] = target: T1, κ-receptor; settings: in vitro; cited from earlier work; remark: listed apart in the source
δ-receptor [7] = target: T2, δ-receptor; settings: in vitro; cited from earlier work; remark: listed apart in the source

Structure (SMILES): Oc1ccc2c3c1O[C@H]1[C@H](O)CC[C@@]4(O)[C@@H](C2)N(CC2CC2)CC[C@]314 [60-naltrexol]
- antagonist activity (opioid receptors [1]): active antagonist

Structure (SMILES): C=CCN1CC[C@]23c4c5ccc(O)c4O[C@H]2C(=O)CC[C@@]3(O)[C@H]1C5 [Naloxone, 17-allyl-4,5α-epoxy-3,14-dihydroxymorphinan-6-one]
- Liposomal naloxone conc. [2]: 6.8 mg/mL

Structure (SMILES): O=C1CC[C@@]2(O)[C@H]3Cc4ccc(O)c5c4[C@@]2(CCN3CC2CC2)[C@H]1O5 [Naltrexone, 17-(cyclopropylmethyl)-4,5α-epoxy-3,14-dihydroxymorphinan-6-one]
- Liposomal naltrexone conc. [2]: 8.1 mg/mL
- duration of effect (opioid receptors [3]): last about a day

Structure (SMILES): NC(=O)c1ccc2c(c1O)[C@]13CCN(CC4CC4)[C@H](C2)[C@]1(O)CCC(=O)C3 [Samidorphan, 3-carboxamido-4-hydroxynaltrexone]
- greater affinity at mu-opioid receptor compared to naltrexone (μ-opioid receptor): five
- affinity at μ-receptor (μ-opioid receptor; in vitro): high affinity
- affinity at κ-receptor (κ-receptor [4]): high affinity
- affinity at δ-receptor (δ-receptor [5]): high affinity
- action at μ-receptor (μ-receptor): antagonist
- action at κ-receptor (κ-receptor [6]): partial agonist
- action at δ-receptor (δ-receptor [7]): partial agonist
